{
  "source": "patent US8293734B2",
  "about": "“Nitroimidazooxazine and nitroimidazooxazole analogues and their uses” (priority 2009, dated 2012)",
  "key": {"[1]": {"test_system": "Trypanosoma cruzi amastigotes (Tulahuen C2C4 strain)", "test": "Trypanosoma cruzi assay in infected L-6 cells", "assay_type": "cell-based", "conditions": "L6, 96 h incubation, read-out: IC50 T. cruzi", "description": "(§1) (c) Antiprotozoal screening. Compounds were evaluated for their activities against both Trypanosoma cruzi amastigotes and Leishmania donovani amastigotes (free or encapsulated in macrophages), according to the following protocols:\n(i) Trypanosoma cruzi assay. L-6 cells (2×10^3) in medium (100 μL of RPMI 1640 supplemented with 2 mM L-glutamine plus 10% heat inactivated fetal calf serum) were seeded in 96-well microtitre plates (Costar™) and incubated at 37° C. (5% CO2) for 1d. A suspension (50 μL) of Trypanosoma cruzi trypomastigotes (5×10^3 of Tulahuen C2C4 strain, containing the β-galactosidase gene) was added, and the cells were incubated at 37° C. (5% CO2) for a further 48 h to establish the infection. The medium was removed and replaced by fresh medium and the infected cells were then incubated at 37° C. (5% CO2) for 96 h in either medium alone or in the presence of serial (3-fold) dilutions of test compounds (initially prepared as 10 mg/mL stock solutions in DMSO and diluted into medium). Benznidazole was employed as a standard in each assay. Following incubation, chlorophenol red glycoside (100 mM) in 0.1% Nonidet P40/PBS (50 μL) was added, and (after 6 h) the absorbance at 540 nm was measured and used to calculate the IC50 values."}, "[2]": {"test_system": "L. donovani amastigotes (MHOM-ET-67/L82) in mouse macrophages", "test": "Leishmania donovani infected macrophage assay", "assay_type": "cell-based", "conditions": "96 h incubation, read-out: IC50 L. donovani macro", "description": "as §1\n(iii) Leishmania donovani infected macrophage assay. Freshly harvested mouse macrophages in medium (RPMI 1640 plus 10% heat inactivated fetal calf serum) were incubated at 37° C. (5% CO2) for 24 h and then infected (1:3 macrophages to amastigotes) with an axenic L. donovani amastigote culture (MHOM-ET-67/L82) in medium (SM, pH 5.4 plus 10% heat inactivated fetal calf serum). The infected macrophages were seeded at a density of 1.2×10^6/mL (by diluting in RPMI+10% FCS) in 16-well slides (Lab-tek™) and incubated at 37° C. (5% CO2) for 24 h. The medium was removed and replaced by fresh medium (RPMI 1640+10% FCS), and this was repeated following mixing. The infected macrophages were then incubated at 37° C. (5% CO2) for 96 h in either medium alone or in the presence of serial (3-fold) dilutions of test compounds (initially prepared as 10 mg/mL stock solutions in DMSO and diluted into medium). Miltefosin was employed as a standard in each assay. […], the slides were fixed (5 min in 100% MeOH) and stained (10% Giemsa, 10 min). The ratio of infected to uninfected macrophages was determined by microscopic examination, and the IC50 values were then calculated by linear regression analysis."}, "[3]": {"test": "Stability to mouse liver microsomes", "assay_type": "in vitro ADME, CD-1 mouse", "conditions": "1 μM compound, 60 min, 37° C., 0.5 mg/mL protein", "description": "(§2) (a) Stability of the compounds to human and mouse microsomes. Test compounds (1 μM) were incubated at 37° C. with pooled human or CD-1 mouse liver microsome preparations (0.5 mg/mL final protein concentration) and an NADPH regenerating system (MgCl2, 3.3 mM; G6P, 3.3 mM; G6PD, 0.4 U/mL; NADP+, 1.3 mM) in phosphate buffer (75 mM, pH 7.4), with a final volume of 200 μL. The compounds were dissolved in DMSO such that the final DMSO concentration was 0.5%. Reactions were stopped at 0 and 60 min by the addition of MeCN (100 μL) containing 0.2 μM metoprolol as an internal standard. Samples were diluted 10× and centrifuged prior to analysis by LC-MS/MS using electrospray ionization and SRM monitoring using a gradient LC method. LC peak areas were integrated and expressed as analyte/IS peak area ratios (PAR), and a mean value for each time point was calculated from the duplicates. The percent remaining value was calculated as: % remaining=100×(Mean PART60/Mean PART0)."}, "VERO cells (CCL-81)": {"test_system": "VERO cells (CCL-81)", "test": "Mammalian cell cytotoxicity assay (tetrazolium dye)", "assay_type": "cell-based", "conditions": "Chlorocebus sabaeus, 72 h exposure, read-out: IC50 VERO", "description": "(b) Mammalian cell cytotoxicity assay. This was assessed against VERO cells (CCL-81, American Type Culture Collection) in a 72 h exposure, using a tetrazolium dye assay (Falzari et al., 2005)."}, "[4]": {"test_system": "Axenically grown L. donovani amastigotes (MHOM-ET-67/L82)", "test": "Axenic Leishmania donovani assay", "assay_type": "cell-based", "conditions": "70 h incubation, read-out: IC50 L. donovani axen", "description": "as §1\n(ii) Axenic Leishmania donovani assay. Axenically grown L. donovani amastigotes (MHOM-ET-67/L82) from a healthy culture in log phase were seeded at a density of 1×10^6/mL medium (SM, pH 5.4 plus 10% heat inactivated fetal calf serum) in 96-well microtitre plates (Costar™) and incubated at 37° C. (5% CO2) for 70 h in either medium alone or in the presence of serial (3-fold) dilutions of test compounds (initially prepared as 10 mg/mL stock solutions in DMSO and diluted into medium). Miltefosin was employed as a standard in each assay. After incubation, Resazurin fluorescent dye was added to each well, and incubation was continued for an additional 2 h. The IC50 values were determined from measurements of the fluorescence data."}, "[5]": {"test": "Stability to human liver microsomes", "assay_type": "in vitro ADME", "conditions": "1 μM compound, 60 min, 37° C., 0.5 mg/mL protein", "description": "as §2"}},
  "data": [
    {"smiles": "O=[N+]([O-])c1cn2c(n1)OCC(COCc1ccc(OC(F)(F)F)cc1)C2", "note": "(stereo not shown) [Compound 72, 2-nitro-6-({[4-(trifluoromethoxy)benzyl]oxy}methyl)-6,7-dihydro-5H-imidazo[2,1-b][1,3]oxazine]", "values": [
      {"measurement": "melting point", "result": "92 to 93", "unit": "°C"},
      {"measurement": "IC50", "setting": "[1]", "result": 0.62, "unit": "µg/mL"},
      {"measurement": "IC50", "setting": "[2]", "result": 0.55, "unit": "µg/mL"},
      {"measurement": "Microsomes (% remaining) Mouse", "setting": "[3]", "result": 41, "unit": "%"},
      {"measurement": "IC50", "setting": "VERO cells (CCL-81)", "result": 46, "unit": "µM"},
      {"measurement": "IC50", "setting": "[4]", "result": 0.089, "unit": "µg/mL"},
      {"measurement": "Microsomes (% remaining) Human", "setting": "[5]", "result": 71, "unit": "%"}
    ]}
  ]
}
